Test results as given in the supplement of paper PMC10307832.

How the values were obtained:
Assay in all cases: relative viability (nuclei count vs DMSO), 5 days (fraction); higher = more cells survive
Bortezomib + Navitoclax = compound: CC(C)C[C@H](NC(=O)[C@H](Cc1ccccc1)NC(=O)c1cnccn1)B(O)O [Bortezomib] + CC1(C)CCC(c2ccc(Cl)cc2)=C(CN2CCN(c3ccc(C(=O)NS(=O)(=O)c4ccc(N[C@H](CCN5CCOCC5)CSc5ccccc5)c(S(=O)(=O)C(F)(F)F)c4)cc3)CC2)C1 [Navitoclax] (partner 0.5 µM)
Outline: (§1)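 A single step with final 0.05% Triton X-100, 1% formaldehyde and 1 ug/ml Hoechst fixed the cells and stained nuclei 5 days after treatment. Lung cancer cell lines in 1536-well plates had been treated by pin tool the day after seeding with one drug alone or a fixed anchor-drug dose plus five library-drug doses (not always all listed) in √10 steps, and nuclei were counted on 4× images. Relative viability is the ratio of nuclei in treated wells to nuclei in vehicle wells, taken as the median of duplicate plates.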

[1] = compound: CC1=CC(=NN1)NC2=CC(=NC(=N2)/C=C/C3=CC=CC=C3)N4CCN(CC4)C + CS(=O)(=O)N1CCN(Cc2cc3nc(-c4cccc5[nH]ncc45)nc(N4CCOCC4)c3s2)CC1 [Pictilisib] (partner 1 µM)
Outline: as §1

[2] = compound: CC1=CC(=NN1)NC2=CC(=NC(=N2)/C=C/C3=CC=CC=C3)N4CCN(CC4)C + Nc1ncn([C@H]2C[C@H](O)[C@@H](CO)O2)c(=O)n1 [Decitabine] (partner 2 µM)
Outline: as §1

Obatoclax + Navitoclax = compound: COC1=CC(c2cc3ccccc3[nH]2)=N/C1=C\c1[nH]c(C)cc1C [Obatoclax] + CC1(C)CCC(c2ccc(Cl)cc2)=C(CN2CCN(c3ccc(C(=O)NS(=O)(=O)c4ccc(N[C@H](CCN5CCOCC5)CSc5ccccc5)c(S(=O)(=O)C(F)(F)F)c4)cc3)CC2)C1 [Navitoclax] (partner 0.5 µM)
Outline: as §1

Cell Line	relative viability (Bortezomib + Navitoclax; first compound 0.002 µM)	relative viability (Bortezomib + Navitoclax; first compound 0.006325 µM)	relative viability (Bortezomib + Navitoclax; first compound 0.02 µM)	relative viability ([1]; first compound 0.08 µM)	relative viability ([1]; first compound 0.253 µM)	relative viability ([1]; first compound 0.8 µM)	relative viability ([1]; first compound 2.53 µM)	relative viability ([1]; first compound 8 µM)	relative viability ([2]; first compound 0.08 µM)	relative viability ([2]; first compound 0.253 µM)	relative viability ([2]; first compound 0.8 µM)	relative viability ([2]; first compound 2.53 µM)	relative viability ([2]; first compound 8 µM)	relative viability (Obatoclax + Navitoclax; first compound 0.01 µM)	relative viability (Obatoclax + Navitoclax; first compound 0.03162 µM)	relative viability (Obatoclax + Navitoclax; first compound 0.3162 µM)	relative viability (Obatoclax + Navitoclax; first compound 1 µM)	relative viability (Bortezomib + Navitoclax; first compound 0.0002 µM)	relative viability (Bortezomib + Navitoclax; first compound 0.000632 µM)	relative viability (Obatoclax + Navitoclax; first compound 0.1 µM)
ChaGo-K-1	0.964	0.307	0.2	0.605	0.912	1	0.292	0.271	0.509	0.587	0.465	0.383	0.21	0.956	0.669	0.955	1.32			
EKVX	0.978	0.44	0.0945	0.438	0.478	0.488	0.31	0.115	0.299	0.297	0.374	0.331	0.152	0.86	0.618	0.924	0.922	0.95	1.03	0.98
EMC-BAC-2	1.28	0.595	0.171	0.507	0.589	0.468	0.325	0.154	0.989	0.91	0.946	0.689	0.282	1.15	1.18	1.19	1.22	1.13	1.2	1.13
EPLC-272H	1.06	0.0971	0.0714	0.286	0.286	0.31	0.0769	0.152	0.345	0.373	0.36	0.245	0.163	1.1	1.16	1.03	1.26			1.38
H3255	0.557	0.105	0.0892	0.507	0.534	0.497	0.396	0.205	0.52	0.54	0.496	0.499	0.249	0.517	0.544	0.537	0.438	0.533	0.557	0.681
HARA	1.12	0.075	0.108	0.396	0.37	0.348	0.204	0.0756	0.529	0.641	0.569	0.192	0.132	1.09	1.11	0.871	1.11	1.14	1.16	1.15
HCC-15	0.692	0.421	0.116	0.739	0.548	0.667	0.299	0.104	0.592	0.654	0.655	0.108	0.0983	0.726	0.726	0.569	0.469	0.706	0.681	0.645
HCC-44	0.94	0.225	0.192	0.606	0.627	0.447	0.34	0.245	0.967	0.965	0.909	0.87	0.845	0.923	0.803	0.911	1.05	0.96	0.932	0.989
HCC-78	0.467	0.16	0.178	0.219	0.216	0.214	0.202	0.108	0.585	0.624	0.694	0.472	0.292	0.81	0.807	0.575	0.668	0.766	0.794	
HCC-366	1.04	0.949	0.0281	0.148	0.156	0.136	0.112	0.0428	0.35	0.368	0.318	0.0513	0.0463	0.969	1.03	0.988	1.01	0.945	1.03	1.05
HCC-827	0.768	0.979	0.0957	0.961	1.02	1.07	0.747	0.8	0.196	0.353	0.337	0.285	0.189	0.997	0.99	0.988	1	1.05	1.03	1.06
HOP-62	0.747	0.243	0.074	0.558	0.458	0.919	0.429	0.0856	0.203	0.191	0.212	0.197	0.166	1.06	1.01	0.989	0.932	1.17	1.05	1.01
LC-2-ad	0.543	0.0995	0.0978	0.46	0.356	0.247	0.0963	0.0784	0.821	0.809	0.744	0.463	0.187	0.359	0.446	0.26	0.145	0.422		0.311
LCLC-97TM1	0.186	0.222	0.0968	0.171	0.102	0.161	0.105	0.0788	0.176	0.22	0.244	0.182	0.0703	0.38	0.439	0.346	0.474	0.586	0.451	0.387
LK-2	0.238	0.172	0.174	0.464	0.694	0.54	0.279	0.186	0.215	0.327	0.274	0.175	0.0787	0.885	0.822	0.864	1.02	0.828	0.878	0.957
LOU-NH91	0.254	0.187	0.201	0.461	0.544	0.513	0.454	0.314	0.793	0.856	0.807	0.809	0.473	0.761	0.739	0.549	0.364	0.697	0.543	0.556
